Assay results published in US20240002375A1, “2-(INDAZOL-5-YL)-6-(PIPERIDIN-4-YL)-1,7-NAPHTHYRIDINE DERIVATIVES AND RELATED COMPOUNDS AS MODULATORS FOR SPLICING NUCLEIC ACIDS AND FOR THE TRE” (REMIX THERAPEUTICS INC., priority 2020, published 2024).

Assays:
Format in all cases: cell-based
[1] = tested on: Target C CJ mRNA; assay: Gene panel canonical junction qPCR splicing assay, Target C; details: Table 4, read-out: Target C IC50 (decrease in CJ mRNA levels)
Outline: (§1)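 A673 or K562 cells treated with compound; canonical-junction mRNA measured by RT-qPCR with junction-spanning primer/probe sets, normalized to GAPDH, GUSB or PPIA and DMSO (2^−ΔΔCt). IC50 for CJ decrease from 4-parameter logistic fit of percentage response.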

[2] = tested on: HTT CJ mRNA; assay: Gene panel canonical junction qPCR splicing assay, HTT; details: Table 4, read-out: HTT IC50 (decrease in CJ mRNA levels)
Outline: as §1

[3] = tested on: SMN2 CJ mRNA; assay: Gene panel canonical junction qPCR splicing assay, SMN2; details: Table 4, read-out: SMN2 IC50 (decrease in CJ mRNA levels)
Outline: as §1

[4] = tested on: HTT mRNA; assay: Splicing assay (RT-qPCR) of HTT mRNA alternative junction (AJ) and canonical junction (CJ); details: A673 or K562 cells, 24 hours; for IC50: decrease in CJ mRNA, read-out: HTT CJ IC50; for AC50: increase in AJ mRNA, read-out: HTT AJ AC50
Outline: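 HTT splice switching read as formation of an alternative-exon junction (AJ) versus the canonical junction (CJ) by one-step RT-qPCR on cell lysates, with GAPDH/GUSB housekeeping normalisation in K562 and PPIA in A673. Compounds: 11-point 3-fold series up to 10 uM, ≤0.25% DMSO, 24 h at 37 °C.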

| SMILES | IC50 [1] | IC50 [2] | IC50 [3] | IC50 [4] | AC50 [4] |
| --- | --- | --- | --- | --- | --- |
| Cn1cc2nc(-c3ccc4nc(C5CCNCC5)ccc4n3)c(F)cc2n1 [Compound 205, 2-{6-fluoro-2-methylpyrazolo[4,3-b]pyridin-5-yl}-6-(piperidin-4-yl)-1,5-naphthyridine] | 1000 to 10000 nM | 1000 to 10000 nM | 1000 to 10000 nM | 1000 to 10000 nM | 1000 to 10000 nM |
| Cc1nc2cc(O)c(-c3ccc4nc(N5CCC(N)C5)ccc4n3)cc2o1 (centres unmarked) [Compound 234, 6-[6-(3-aminopyrrolidin-1-yl)-1,5-naphthyridin-2-yl]-2-methyl-1,3-benzoxazol-5-ol] | 100 to 1000 nM | 100 to 1000 nM | < 100 nM | 100 to 1000 nM | < 100 nM |
| Cc1nc2c(C)c(O)c(-c3ccc4nc(N5CCC(NC6CCC6)C5)ccc4n3)cc2o1 (centres unmarked) [Compound 235, 6-{6-[3-(cyclobutylamino)pyrrolidin-1-yl]-1,5-naphthyridin-2-yl}-2,4-dimethyl-1,3-benzoxazol-5-ol] | < 100 nM | < 100 nM | < 100 nM | < 100 nM | < 100 nM |
| Cn1cc2cc(-c3ccc4nc(N5CCC(N)C5)ccc4n3)c(O)c(F)c2n1 (centres unmarked) [Compound 238, 5-[6-(3-aminopyrrolidin-1-yl)-1,5-naphthyridin-2-yl]-7-fluoro-2-methylindazol-6-ol] | < 100 nM | < 100 nM | < 100 nM | < 100 nM | < 100 nM |
| Cn1cc2cc(-c3ccc4cc(C5CCNCC5)ccc4n3)c(O)c(F)c2n1 [Compound 241, 7-fluoro-2-methyl-5-[6-(piperidin-4-yl)quinolin-2-yl]indazol-6-ol] | < 100 nM | < 100 nM | < 100 nM | < 100 nM | < 100 nM |
| Cn1cc2cc(-c3ccc4nc(N5CC[C@@H](N[C@H]6C[C@H](F)C6)C5)ccc4n3)c(O)cc2n1 [Compound 246] | < 100 nM | < 100 nM | < 100 nM | < 100 nM | < 100 nM |
| Cn1cc2cc(-c3ccc4nc(N5CC[C@H](N[C@H]6C[C@H](F)C6)C5)ccc4n3)c(O)cc2n1 [Compound 247] | 100 to 1000 nM | < 100 nM | < 100 nM | < 100 nM | 100 to 1000 nM |

The next lines start with results.

| IC50 [1] | IC50 [2] | IC50 [3] | IC50 [4] | SMILES | AC50 [4] |
| --- | --- | --- | --- | --- | --- |
| 1000 to 10000 nM | 1000 to 10000 nM | 1000 to 10000 nM | 1000 to 10000 nM | Cc1cn2cc(-c3ccc4nc(N5CCC(NC(C)(C)C)C5)ccc4n3)nc(C)c2n1 (centres unmarked) [Compound 206] | 1000 to 10000 nM |
| 1000 to 10000 nM | 1000 to 10000 nM | 1000 to 10000 nM | 1000 to 10000 nM | Cn1cc2nc(-c3ccc4nc(N5CCC(NC(C)(C)C)C5)ccc4n3)c(F)cc2n1 (centres unmarked) [Compound 207] | 1000 to 10000 nM |
| > 10000 nM | > 10000 nM | 1000 to 10000 nM | > 10000 nM | Cc1nc(-c2ccc3nc(N4CCC(NC(C)(C)C)C4)ccc3n2)cc2cn(C)nc12 (centres unmarked) [Compound 208] | > 10000 nM |
| < 100 nM | < 100 nM | < 100 nM | < 100 nM | Cc1nc2cc(O)c(-c3ccc4nc(N5CC[C@H](NC(C)(C)C)C5)ccc4n3)cc2o1 [Compound 209] | < 100 nM |
| 1000 to 10000 nM | < 100 nM | < 100 nM | < 100 nM | Cc1nc2cc(O)c(-c3ccc4nc(N5CC[C@@H](NC(C)(C)C)C5)ccc4n3)cc2o1 [Compound 210] | < 100 nM |
| > 10000 nM | > 10000 nM | 100 to 1000 nM | > 10000 nM | Cn1cc2cc(-c3cc4ccc(N5CCC(NC(C)(C)C)C5)nc4cn3)c(O)cc2n1 (centres unmarked) [Compound 218, 5-{2-[3-(tert-butylamino)pyrrolidin-1-yl]-1,7-naphthyridin-6-yl}-2-methylindazol-6-ol] | > 10000 nM |
